Measurements from patent publication US10184118B2, “Cytochrome P450S and uses thereof” (University of Kentucky Research Foundation, priority 2001, dated 2019).
Like-named read-outs stand apart in the source and are kept apart here.

Legend:
[1] = biological target: T1, 5-epi-aristolochene synthase (EAS) (Nicotiana tabacum, UniProt Q40577); experiment: In vitro activity of purified recombinant EAS with inhibitors; assay type: biochemical
T1 construct: made in house
T1 sequence (Q40577 1-548): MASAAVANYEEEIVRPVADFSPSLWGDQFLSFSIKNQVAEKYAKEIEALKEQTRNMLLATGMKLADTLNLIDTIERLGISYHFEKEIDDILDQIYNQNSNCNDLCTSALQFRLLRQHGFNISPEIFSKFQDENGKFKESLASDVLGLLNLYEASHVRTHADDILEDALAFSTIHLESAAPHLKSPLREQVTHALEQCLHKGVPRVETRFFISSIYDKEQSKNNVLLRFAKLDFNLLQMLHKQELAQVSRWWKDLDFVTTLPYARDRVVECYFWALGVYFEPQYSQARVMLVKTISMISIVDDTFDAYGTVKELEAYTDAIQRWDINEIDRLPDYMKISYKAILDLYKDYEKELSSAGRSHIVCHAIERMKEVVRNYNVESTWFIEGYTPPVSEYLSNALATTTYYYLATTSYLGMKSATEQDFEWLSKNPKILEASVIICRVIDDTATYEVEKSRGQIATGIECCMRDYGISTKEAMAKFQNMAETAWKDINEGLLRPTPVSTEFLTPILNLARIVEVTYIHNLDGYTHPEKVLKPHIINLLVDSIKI
Experimental: The in vitro activity of a purified EAS preparation (Back and Chappell, J. Biol. Chem. 270:7375-7381, 1995) was also measured at the indicated inhibitor concentrations as an additional test for non-specific effects of these inhibitors (circles).

[2] = test system: induction of EAS in elicitor-treated cell cultures; experiment: Inducible sesquiterpene cyclase (EAS) activity in extracts of elicitor-treated cells; assay type: cell-based, Nicotiana tabacum; settings: 12 h with cellulase
[3] = test system: 5-epi-aristolochene hydroxylase (5EAH)
Experimental: (§1) The hexane solvent was removed under a gentle stream of N2 gas, and the dried residue was re-dissolved in acetone. […] Detection and quantification of capsidiol in the extracellular culture media was performed as reported previously (Chappell et al., Phytochemistry 26:2259-2260, 1987), and the amount of radioactivity incorporated into capsidiol was determined. For these determinations, samples were separated by TLC, and the zones corresponding to capsidiol were scraped from the plate for scintillation counting.
(§2) Inhibition studies were performed by the addition of the P450 inhibitors ancymidol (Coolbaugh et al., Plant Physiol. 62:571-576, 1978; Hoshino et al., Phytochemistry 38:609-613, 1995) and ketoconazole (Hoshino et al., Phytochemistry 38:609-613, 1995; Rademacher, Annu. Rev. Plant Physiol. Plant Mol. Biol. 51:501-531, 2000) directly to the cell cultures or enzyme assay mix. […] After a further 3 hour incubation period, the cells and media were collected. The amount of radioactivity incorporated into extracellular capsidiol was determined as described above. To evaluate secondary effects of these inhibitors, the level of inducible sesquiterpene cyclase activity in the collected cells was determined according to Vogeli et al. (Plant Physiol. 93:182-187, 1990), as well as in vitro assays with purified recombinant EAS (Back et al., Arch. Biochem. Biophys. 315:527-532, 1994) incubated with the indicated concentrations of ancymidol and ketoconazole.

[4] = test system: 3-hydroxylase (5-epi-aristolochene to 1-deoxycapsidiol); settings: cited from earlier work
[5] = test system: 5-epi-aristolochene hydroxylase (5EAH); experiment: In vivo 5-epi-aristolochene hydroxylase assay in elicitor-treated tobacco cell suspension cultures; settings: Nicotiana tabacum, read-out: inhibition of apparent activity of 5EAH
Experimental: as §1, §2

CYP71D20 = settings: 20 to 50 μM substrate, 2 mM NADPH, 1 mg/mL microsomal protein, 30° C.
Experimental: Reactions were carried out in 100 mM Tris-HCl, pH 7.5, to which microsomal protein was added to a final concentration of 1 mg/mL. Reactions were initiated by the addition of 2 mM NADPH. […] After incubations for variable lengths of time at 30° C., the reactions were extracted with two volumes of ethyl acetate. […] GC analysis was routinely performed with an HP5890 GC equipped with a Hewlett-Packard HP-5 capillary column (30 m×0.25 mm, 0.25 μm phase thickness) and FID as described previously (Rising et al., J. Am. Chem. Soc. 122:1861-1866, 2000). GC-MS analysis was performed at the University of Kentucky Mass Spectrometry Facility using a Varian 3400 gas chromatograph and a Finnigan INCOS 50 quadrupole mass selective detector. The GC was equipped with a J&W DB-5 ms capillary column (15 m×0.25 mm, 0.25 μm phase thickness) and run with He as the carrier gas (10 psi.). Splitless injections were done at an injection port temperature of 280° C. The column temperature was maintained at 40° C. for 1 minute and then increased to 280° C. at 10° C. per minute. Following separation by the GC column, samples were introduced directly into the electron impact ionization source. Mass spectra were acquired at 70 eV, scanning from 40-440 Da in 1 second.

[6] = concentrations as high as 100 μM
[7] = microsomes incubated with 5-epi-aristolochene

Q: Which results are given for `COc1ccc(C(O)(c2cncnc2)C2CC2)cc1` (stereo not shown) [ancymidol]?
A: effect on in vitro activity of recombinant EAS [1, 6]: neither the in vitro activity of recombinant EAS nor the induction of EAS in the elicitor-treated cell cultures was significantly affected; effect on induction of EAS in elicitor-treated cell cultures [2, 6]: neither the in vitro activity of recombinant EAS nor the induction of EAS in the elicitor-treated cell cultures was significantly affected; inhibition ([3]; 25 µM): ~50%; effect on 1-deoxycapsidiol accumulation in vitro [4, 7]: arrested; inhibition at 75 µM [5]: > 80%

Q: Which “effect on 1-deoxycapsidiol accumulation in vitro” value [4, 7] does the source give for `[C-]#[O+]` [carbon monoxide] here?
A: Its value is “arrested”.

Q: With `C=C(C)[C@@H]1CC=C2CCC[C@@H](C)[C@@]2(C)C1` [5-epi-aristolochene] as the compound, how does the “metabolism by CYP71D20 microsomes (GC, GC-MS of products)” value (CYP71D20) read?
A: Its value is “metabolized to only one product with the same retention time as capsidiol”.

Q: For `CC(=O)N1CCN(c2ccc(OCC3COC(Cn4ccnc4)(c4ccc(Cl)cc4Cl)O3)cc2)CC1` (stereo not shown) [ketoconazole], which “effect on in vitro activity of EAS” value ([1]; indicated inhibitor concentrations (FIG. 3B)) is on record?
A: Its value is “does not appear to affect”.

Q: What about the “concentration at which inducibility of cyclase activity in elicitor-treated cell extracts was inhibited” value [2] of the same compound?
A: Its value is “above 50 μM”.

Q: What about the inhibition ([3]; 25 µM) of the same compound?
A: Its inhibition is about 50%.

Q: And the inhibition ([3]; 100 µM)?
A: The inhibition was 95%.

Q: What about the “effect on 1-deoxycapsidiol accumulation in vitro” value [4] of the same compound?
A: Its value is “arrested”.

Q: With `C=C(C)[C@@H]1CC=C2CC[C@@H](O)[C@@H](C)[C@@]2(C)C1` [1-deoxycapsidiol] as the compound, how does the “metabolism by CYP71D20 microsomes (GC, GC-MS of products)” value (CYP71D20) read?
A: The value was “metabolized to only one product with the same retention time as capsidiol”.
